22 compounds from PubChem BioAssay (NCI) can be followed below.

Some test systems named below: UACC-62 melanoma; M14 melanoma; SN12C renal; MOLT-4 leukemia; RPMI-8226 leukemia; SF-268 CNS; HL-60(TB) leukemia; OVCAR-4 ovarian; CCRF-CEM leukemia.
What all share (assay): NCI-60 cell line screen, 48 h

Values joined by “and” are separate entries in the source; they are usually repeats but may differ in a detail not shown here. Equal values may be shown once.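 Five compound concentrations were applied to cells in 96-well plates for 48 hours; endpoints were derived by simple linear interpolation of the resulting dose-response curve. The concentration for 50% growth inhibition is given as GI50. TGI marks complete inhibition of growth.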

As to `Cc1nc2c(ccc3ncccc32)[nH]1`, the TGI in the experiment with UACC-62 melanoma, in the experiment on M14 melanoma, in the experiment with SN12C renal, in the experiment with MOLT-4 leukemia, in the experiment with RPMI-8226 leukemia and in the experiment on SF-268 CNS was more than 100 µM in each case. Also, the TGI with HL-60(TB) leukemia, in the experiment on OVCAR-4 ovarian and in the experiment with CCRF-CEM leukemia was more than 100 µM in each case.

Regarding `Clc1ccccc1C(SCc1ccccc1)SCc1ccccc1`, the TGI with UACC-62 melanoma, in the experiment on M14 melanoma, in the experiment on SN12C renal, with MOLT-4 leukemia, with RPMI-8226 leukemia and in the experiment with SF-268 CNS was more than 100 µM in each case. In addition, the TGI in the experiment on HL-60(TB) leukemia, with OVCAR-4 ovarian and with CCRF-CEM leukemia was more than 100 µM in each case.

Turning to `Cc1c(C(=O)C/C(=N/NC(=O)c2ccccc2O)C(=O)Nc2ccccc2C(C)C)[n+](=O)c2ccccc2n1[O-]`, the TGI in the experiment with UACC-62 melanoma was 77.7 µM; with M14 melanoma, more than 100 µM; with SN12C renal it was more than 100 µM; in the experiment with MOLT-4 leukemia, 21.9 µM; in the experiment on SF-268 CNS it was more than 100 µM; in the experiment on HL-60(TB) leukemia it was 38.3 µM. For the same compound, the TGI is more than 100 µM with OVCAR-4 ovarian and 28.8 µM in the experiment on CCRF-CEM leukemia.

On to `CCCCCCCCCCCC(=O)OCCOCCOCCOCCOCCOCc1ccccc1`, for which the TGI with UACC-62 melanoma, with M14 melanoma, with SN12C renal, with MOLT-4 leukemia, in the experiment with RPMI-8226 leukemia and with SF-268 CNS was more than 100 µM throughout. For the same compound, the TGI in the experiment with HL-60(TB) leukemia, in the experiment with OVCAR-4 ovarian and with CCRF-CEM leukemia was more than 100 µM in each case.

Regarding `COC(CCC[N+](C)(C)C)CC[N+](C)(C)C` (stereo not given), the TGI with UACC-62 melanoma, in the experiment on M14 melanoma, with SN12C renal, in the experiment on MOLT-4 leukemia, in the experiment on RPMI-8226 leukemia and with SF-268 CNS was more than 100 µM each time. Further, the TGI in the experiment with HL-60(TB) leukemia, in the experiment with OVCAR-4 ovarian and with CCRF-CEM leukemia was more than 100 µM throughout.

As to `CC1(C(=O)O)CCC[C@@]2(C)C1CC[C@@]1(C)c3cocc3CCC21` (stereo not given in full), the TGI with UACC-62 melanoma, in the experiment with M14 melanoma, with SN12C renal, in the experiment with MOLT-4 leukemia, in the experiment on RPMI-8226 leukemia and in the experiment with SF-268 CNS was more than 100 µM in each case. Besides, the TGI in the experiment on HL-60(TB) leukemia, in the experiment on OVCAR-4 ovarian and in the experiment with CCRF-CEM leukemia was more than 100 µM each time.

Regarding `O=C(CCc1nc(=S)[nH][nH]1)Nc1cc(Cl)c(Cl)cc1Cl`, the TGI in the experiment on UACC-62 melanoma, in the experiment with M14 melanoma, in the experiment on SN12C renal, in the experiment on MOLT-4 leukemia, in the experiment with RPMI-8226 leukemia and with SF-268 CNS was more than 100 µM each time. The TGI with HL-60(TB) leukemia, in the experiment on OVCAR-4 ovarian and in the experiment with CCRF-CEM leukemia was more than 100 µM in each case.

For the compound `Cc1ccc(S(=O)(=O)OC[C@@H]2CO2)cc1`, the TGI in the experiment with M14 melanoma, in the experiment on SN12C renal, with MOLT-4 leukemia, with HL-60(TB) leukemia, with OVCAR-4 ovarian and with CCRF-CEM leukemia was more than 100 µM throughout.

On to `O=C(O)CCNCCCNCCC(=O)O`, for which the TGI with UACC-62 melanoma, in the experiment on M14 melanoma, in the experiment with SN12C renal, with MOLT-4 leukemia, in the experiment with RPMI-8226 leukemia and with SF-268 CNS was more than 100 µM in each case. Also, the TGI with HL-60(TB) leukemia, with OVCAR-4 ovarian and with CCRF-CEM leukemia was more than 100 µM throughout.

Consider `CCC[CH2][Sn]([CH2]CCC)([S]c1cccc2cccnc12)[S]c1cccc2cccnc12`, for which the GI50 with UACC-62 melanoma is 0.279 µM; in the experiment on M14 melanoma it was 0.175 µM; in the experiment on SN12C renal it was 0.24 µM; with MOLT-4 leukemia it was 0.109 µM; in the experiment on OVCAR-4 ovarian, 0.135 µM; in the experiment on CCRF-CEM leukemia, 0.035 µM. In addition, the TGI worked out at 0.959 µM in the experiment with UACC-62 melanoma; 0.339 µM in the experiment with M14 melanoma; 0.822 µM in the experiment with SN12C renal; 0.397 µM with MOLT-4 leukemia; 0.307 µM in the experiment with OVCAR-4 ovarian; 0.285 µM in the experiment with CCRF-CEM leukemia.

In the case of `O=C(O)CCC(NC(=O)c1ccc(Nc2nc3ccccc3nc2-c2cccs2)cc1)C(=O)O` (stereo not given), the TGI with UACC-62 melanoma, in the experiment on M14 melanoma, with SN12C renal, in the experiment with MOLT-4 leukemia, in the experiment on RPMI-8226 leukemia and in the experiment with SF-268 CNS was more than 100 µM in each case. The TGI in the experiment with HL-60(TB) leukemia, in the experiment with OVCAR-4 ovarian and in the experiment on CCRF-CEM leukemia was more than 100 µM each time.

For the compound `CCOC(=O)CCC1(C(=O)OCC)CCCCC1=O` (stereo not given), the TGI with MOLT-4 leukemia, in the experiment with RPMI-8226 leukemia, with SF-268 CNS, with HL-60(TB) leukemia and in the experiment with CCRF-CEM leukemia was more than 100 µM in each case.

With `COc1ccc2c(c1)sc1nc(-c3ccccc3)c(-c3cccc4ccccc34)n12`, the GI50 was 0.414 µM in the experiment with UACC-62 melanoma; 0.475 µM in the experiment with M14 melanoma; 1.02 µM with SN12C renal; 0.774 µM in the experiment on MOLT-4 leukemia; 0.99 µM with RPMI-8226 leukemia; 0.878 µM in the experiment with SF-268 CNS. Besides, the GI50 is 0.148 µM with HL-60(TB) leukemia, 2.87 µM in the experiment with OVCAR-4 ovarian and 0.45 µM with CCRF-CEM leukemia. Also, the TGI with UACC-62 melanoma was more than 100 µM; in the experiment on M14 melanoma, more than 100 µM; in the experiment on SN12C renal it was more than 100 µM; in the experiment on MOLT-4 leukemia it was more than 100 µM; with RPMI-8226 leukemia, 27.4 µM; in the experiment on SF-268 CNS, more than 100 µM. Also, the TGI in the experiment on OVCAR-4 ovarian and in the experiment with CCRF-CEM leukemia was more than 100 µM in each case.

In the case of `CNC(=S)OCCC(C)CCCC(C)C` (stereo not given), the TGI with UACC-62 melanoma is 29.1 µM; with M14 melanoma it was 35.2 µM; with SN12C renal, 30.3 µM; in the experiment on MOLT-4 leukemia, 27.1 µM; with RPMI-8226 leukemia, 26.8 µM; in the experiment on SF-268 CNS, 30.7 µM. Further, the TGI in the experiment on HL-60(TB) leukemia amounted to 23.6 µM; in the experiment with OVCAR-4 ovarian, 30.9 µM; in the experiment on CCRF-CEM leukemia it was 40.7 µM.

Regarding `CCCC1C(=O)CCc2c(OC)ccc(OC)c21` (stereo not given), the TGI with UACC-62 melanoma, in the experiment on M14 melanoma, in the experiment with SN12C renal, in the experiment with MOLT-4 leukemia, in the experiment on RPMI-8226 leukemia and with SF-268 CNS was more than 100 µM each time. In addition, the TGI in the experiment on HL-60(TB) leukemia, in the experiment with OVCAR-4 ovarian and with CCRF-CEM leukemia was more than 100 µM each time.

Regarding `CCCCCCCCCCCCCC(=O)OC(/C=C/C(C)C)C(O)C(O)C(OC)C(=O)NC1CCCCN(C)C1=O` (stereo not given), the TGI in the experiment on UACC-62 melanoma was 6.15 µM and > 49 µM; in the experiment on M14 melanoma it was 6.09 µM and > 49 µM; with MOLT-4 leukemia, 7.54 µM and > 49 µM; in the experiment with RPMI-8226 leukemia, 9.97 µM and > 49 µM; with SF-268 CNS, 8.63 µM and > 49 µM; in the experiment with HL-60(TB) leukemia, 5.49 µM and 10.4 µM and > 49 µM. For the same compound, the TGI in the experiment on OVCAR-4 ovarian is 7.57 µM and > 49 µM; with CCRF-CEM leukemia, 10.7 µM and > 49 µM. Further, the GI50 with M14 melanoma, with RPMI-8226 leukemia and in the experiment with CCRF-CEM leukemia was more than 49 µM throughout.

As for `O=C(CC(=O)c1cccc2ccccc12)C(=O)Nc1ccc(Cl)cc1`, the TGI with UACC-62 melanoma, with M14 melanoma, with SN12C renal, in the experiment with MOLT-4 leukemia, with RPMI-8226 leukemia and in the experiment on SF-268 CNS was more than 100 µM in each case. The TGI in the experiment on HL-60(TB) leukemia, with OVCAR-4 ovarian and with CCRF-CEM leukemia was more than 100 µM each time.

`C[C@@H](Oc1cc(-n2cnc3ccc(CN4CCN(C)CC4)cc32)sc1C(N)=O)c1ccccc1C(F)(F)F`: the GI50 was 0.0326 µM and 0.0382 µM with UACC-62 melanoma; 0.0123 µM with M14 melanoma; 0.116 µM and 0.2 µM with SN12C renal; < 0.0107 µM and 0.0112 µM in the experiment on MOLT-4 leukemia; 0.0546 µM and 0.0384 µM in the experiment with RPMI-8226 leukemia; 0.0293 µM and 0.0667 µM in the experiment on SF-268 CNS. For the same compound, the GI50 was < 0.01 µM and 0.00595 µM in the experiment with HL-60(TB) leukemia; 0.817 µM and 0.98 µM in the experiment on OVCAR-4 ovarian; < 0.01 µM and 0.0149 µM in the experiment with CCRF-CEM leukemia. For the same compound, the TGI with UACC-62 melanoma is 16.7 µM and > 10 µM; in the experiment on M14 melanoma, 2.31 µM; with SN12C renal it was 12.1 µM and > 10 µM; in the experiment with MOLT-4 leukemia it was 4.71 µM and 2.76 µM; with RPMI-8226 leukemia, 13.6 µM and > 10 µM; with SF-268 CNS, 16.3 µM and > 10 µM. Moreover, the TGI with HL-60(TB) leukemia is less than 0.0179 µM; in the experiment with OVCAR-4 ovarian, 17.5 µM and > 10 µM; in the experiment with CCRF-CEM leukemia, 4.24 µM and > 2.07 µM.

On to `CNS(=O)(=O)NNS(=O)(=O)c1ccccc1`, for which the TGI in the experiment on UACC-62 melanoma, in the experiment on M14 melanoma, with SN12C renal, with MOLT-4 leukemia, in the experiment with RPMI-8226 leukemia and with SF-268 CNS was more than 100 µM in each case. Moreover, the TGI in the experiment with HL-60(TB) leukemia and in the experiment on CCRF-CEM leukemia was more than 100 µM each time.

As for `CCn1c(C)nn2c(=O)c3ccccc3nc2c1=O`, the TGI in the experiment with UACC-62 melanoma, in the experiment on M14 melanoma, in the experiment with MOLT-4 leukemia, with RPMI-8226 leukemia, in the experiment with HL-60(TB) leukemia and in the experiment on OVCAR-4 ovarian was more than 100 µM throughout. Besides, the TGI in the experiment on CCRF-CEM leukemia was more than 100 µM.

Consider `COC(=O)c1ccccc1NC(=O)C(=O)Cc1nc2c3c(ccc2[nH]c1=O)C(=O)c1ccccc1C3=O`, for which the TGI was 20.4 µM in the experiment on UACC-62 melanoma; more than 100 µM in the experiment with M14 melanoma; more than 100 µM with SN12C renal; 99.6 µM with MOLT-4 leukemia; more than 100 µM with RPMI-8226 leukemia; 67.9 µM in the experiment with SF-268 CNS. Besides, the TGI is 98 µM with OVCAR-4 ovarian and more than 100 µM with CCRF-CEM leukemia.

As to `OCC1=CC(NC2CC(CO)C(O)C(O)C2O)C(O)C(O)C1O` (stereo not given), the TGI with UACC-62 melanoma, in the experiment on M14 melanoma, with SN12C renal, in the experiment on MOLT-4 leukemia, with RPMI-8226 leukemia and in the experiment with CCRF-CEM leukemia was more than 100 µM in each case.
